In ChEMBL document CHEMBL2169745, “Photoinduced DNA cleavage by anthracene based hydroxamic acids” (Bioorg Med Chem Lett, 2012):

What was measured:
Assay type in all cases: nucleic-acid assay
Nucleic Acid [1] = assay: Induction of DNA cleavage in Escherichia coli pBR322 DNA assessed as formation of relaxed circular DNA at 100 uM treated for 1 hr using ethidium bromide staining by agarose gel electrophoresis analysis in presence of UV light; set-up: scale not given: the % may be the effect or the level left
Nucleic Acid [2] = assay: Induction of DNA cleavage in Escherichia coli pBR322 DNA assessed as formation of relaxed circular DNA at 50 uM treated for 1 hr using ethidium bromide staining by agarose gel electrophoresis analysis in presence of UV light; set-up: scale not given: the % may be the effect or the level left
Nucleic Acid [3] = assay: Induction of DNA cleavage in Escherichia coli pBR322 DNA assessed as formation of relaxed circular DNA at 100 uM treated for 1 hr using ethidium bromide staining by agarose gel electrophoresis analysis in presence of bubbling with O2 gas; set-up: scale not given: the % may be the effect or the level left
Nucleic Acid [4] = assay: Induction of DNA cleavage in Escherichia coli pBR322 DNA assessed as formation of relaxed circular DNA at 100 uM treated for 1 hr using ethidium bromide staining by agarose gel electrophoresis analysis in presence of bubbling with Ar gas; set-up: scale not given: the % may be the effect or the level left
Nucleic Acid [5] = assay: Induction of DNA cleavage in Escherichia coli pBR322 DNA assessed as formation of relaxed circular DNA at 100 uM treated for 1 hr using ethidium bromide staining by agarose gel electrophoresis analysis in presence of UV light and 300 mM of NaN3; set-up: scale not given: the % may be the effect or the level left
Nucleic Acid [6] = assay: Induction of DNA cleavage in Escherichia coli pBR322 DNA assessed as formation of relaxed circular DNA at 100 uM treated for 1 hr using ethidium bromide staining by agarose gel electrophoresis analysis in presence of UV light and DABCO; set-up: scale not given: the % may be the effect or the level left
Nucleic Acid [7] = assay: Induction of DNA cleavage in Escherichia coli pBR322 DNA assessed as formation of relaxed circular DNA at 10 uM treated for 1 hr using ethidium bromide staining by agarose gel electrophoresis analysis in presence of UV light; set-up: scale not given: the % may be the effect or the level left
Nucleic Acid [8] = assay: Induction of DNA cleavage in Escherichia coli pBR322 DNA assessed as formation of relaxed circular DNA at 100 uM treated for 1 hr using ethidium bromide staining by agarose gel electrophoresis analysis in presence of UV light and 600 mM of NaN3; set-up: scale not given: the % may be the effect or the level left
Nucleic Acid [9] = assay: Induction of DNA cleavage in Escherichia coli pBR322 DNA assessed as formation of relaxed circular DNA at 40 uM treated for 1 hr using ethidium bromide staining by agarose gel electrophoresis analysis in presence of UV light; set-up: scale not given: the % may be the effect or the level left
Nucleic Acid [10] = assay: Induction of DNA cleavage in Escherichia coli pBR322 DNA assessed as formation of relaxed circular DNA at 100 uM treated for 1 hr using ethidium bromide staining by agarose gel electrophoresis analysis in presence of UV light and 20 mM of NaN3; set-up: scale not given: the % may be the effect or the level left
Nucleic Acid [11] = assay: Induction of DNA cleavage in Escherichia coli pBR322 DNA assessed as formation of relaxed circular DNA at 100 uM treated for 1 hr using ethidium bromide staining by agarose gel electrophoresis analysis in presence of UV light and D2O; set-up: scale not given: the % may be the effect or the level left
Nucleic Acid [12] = assay: Induction of DNA cleavage in Escherichia coli pBR322 DNA assessed as formation of relaxed circular DNA at 25 uM treated for 1 hr using ethidium bromide staining by agarose gel electrophoresis analysis in presence of UV light; set-up: scale not given: the % may be the effect or the level left
Nucleic Acid [13] = assay: Induction of DNA cleavage in Escherichia coli pBR322 DNA assessed as formation of relaxed circular DNA at 100 uM treated for 1 hr using ethidium bromide staining by agarose gel electrophoresis analysis in presence of UV light and 150 mM of NaN3; set-up: scale not given: the % may be the effect or the level left
Nucleic Acid [14] = assay: Induction of DNA cleavage in Escherichia coli pBR322 DNA assessed as formation of relaxed circular DNA at 100 uM treated for 1 hr using ethidium bromide staining by agarose gel electrophoresis analysis in presence of UV light and 40 mM of NaN3; set-up: scale not given: the % may be the effect or the level left
Nucleic Acid [15] = assay: Induction of DNA cleavage in Escherichia coli pBR322 DNA assessed as formation of relaxed circular DNA at 100 uM treated for 1 hr using ethidium bromide staining by agarose gel electrophoresis analysis in presence of UV light and DMSO; set-up: scale not given: the % may be the effect or the level left
Nucleic Acid [16] = assay: Induction of DNA cleavage in Escherichia coli pBR322 DNA assessed as formation of relaxed circular DNA at 100 uM treated for 1 hr using ethidium bromide staining by agarose gel electrophoresis analysis in presence of UV light and ascorbic acid; set-up: scale not given: the % may be the effect or the level left
Nucleic Acid [17] = assay: Induction of DNA cleavage in Escherichia coli pBR322 DNA assessed as formation of relaxed circular DNA treated for 1 hr using ethidium bromide staining by agarose gel electrophoresis analysis in presence of UV light
Nucleic Acid [18] = assay: Induction of DNA cleavage in Escherichia coli pBR322 DNA assessed as formation of relaxed circular DNA at 100 uM treated for 1 hr using ethidium bromide staining by agarose gel electrophoresis analysis in presence of UV light and 75 mM of NaN3; set-up: scale not given: the % may be the effect or the level left
Nucleic Acid [19] = assay: Induction of DNA cleavage in Escherichia coli pBR322 DNA assessed as formation of relaxed circular DNA at 75 uM treated for 1 hr using ethidium bromide staining by agarose gel electrophoresis analysis in presence of UV light; set-up: scale not given: the % may be the effect or the level left

## O=C(/C=C/c1c2ccccc2cc2ccccc12)NC(Cc1ccccc1)C(=O)O (stereo not drawn)
Nucleic Acid [1]
  Activity: 35%

## O=C(/C=C/c1c2ccccc2cc2ccccc12)NC(Cc1c[nH]c2ccccc12)C(=O)NO (stereo not drawn)
Nucleic Acid [1]
  Activity: 89%

## O=C(NO)C(Cc1c[nH]c2ccccc12)NCc1c2ccccc2cc2ccccc12 (stereo not drawn)
Nucleic Acid [1]
  Activity: 91%

## O=C(NO)C(Cc1ccccc1)NCc1c2ccccc2cc2ccccc12 (stereo not drawn)
Nucleic Acid [2]
  Activity: 25%
Nucleic Acid [3]
  Activity: 100%
Nucleic Acid [4]
  Activity: 75%
Nucleic Acid [5]
  Activity: 62%
Nucleic Acid [6]
  Activity: 74%
Nucleic Acid [7]
  Activity: 2%
Nucleic Acid [8]
  Activity: 62%
Nucleic Acid [9]
  Activity: 10%
Nucleic Acid [10]
  Activity: 97%
Nucleic Acid [11]
  Activity: 100%
Nucleic Acid [12]
  Activity: 4%
Nucleic Acid [1]
  Activity: 97%
Nucleic Acid [13]
  Activity: 63%
Nucleic Acid [14]
  Activity: 86%
Nucleic Acid [15]
  Activity: 54%
Nucleic Acid [16]
  Activity: 37%
Nucleic Acid [17]
  Activity: Dose-dependent effect
Nucleic Acid [18]
  Activity: 77%
Nucleic Acid [19]
  Activity: 67%

## O=C(NO)C(NCc1c2ccccc2cc2ccccc12)c1ccccc1 (stereo not drawn)
Nucleic Acid [1]
  Activity: 98%

## O=C(O)C(Cc1ccccc1)NCc1c2ccccc2cc2ccccc12 (stereo not drawn)
Nucleic Acid [1]
  Activity: 60%

## O=C(/C=C/c1cccc2ccccc12)NC(Cc1ccccc1)C(=O)NO (stereo not drawn)
Nucleic Acid [1]
  Activity: 15%

## O=C(NO)C(Cc1ccccc1)NCc1cccc2ccccc12 (stereo not drawn)
Nucleic Acid [1]
  Activity: 16%

## O=C(/C=C/c1c2ccccc2cc2ccccc12)NC(C(=O)NO)c1ccccc1 (stereo not drawn)
Nucleic Acid [1]
  Activity: 99%

## O=C(/C=C/c1c2ccccc2cc2ccccc12)NC(Cc1ccccc1)C(=O)NO (stereo not drawn)
Nucleic Acid [1]
  Activity: 98%
